The values below come from ChEMBL document CHEMBL1158717, “A cytotoxic carotenoid from the marine sponge Prianos osiros” (J Nat Prod, 2005).

The IC50 is the concentration needed to halve the response being measured. Low values mean higher potency, high ones lower potency.

Each structure is given as a SMILES string. In brackets after ≈: the same amount, converted by molar mass.

In the test the test system is HCT-116. Nature of the test: Cytotoxicity against human HCT116 after 72 hrs by MTS assay. It counts as functional, cell-based. To be noted: HCT-116, 72 h. For orientation: Formazan colour is commonly taken as a measure of viable cells.

As to `CC1=C(C#C/C(=C/C=C/C(C)=C/C=C/C=C(C)/C=C/C=C(\C)C(=O)/C=C2\C(C)(C)C[C@H](O)C[C@@]2(C)O)CO)C(C)(C)C[C@H](O)C1`, the half-inhibitory concentration (IC50) turned out to be 4.38 µg/mL (≈ 7.12 µM).
